Measurements: patent publication US9012411B2, “Formulations from derivatives of curcumin, paclitaxel, and aspirin” (Organomed Corporation, priority 2009, dated 2015)
Marks after values point to notes of the source that are not given here.

Legend:
[1] = system: carrageenan induced rat paw edema; assay: Carrageenan induced rat paw edema; format: in vivo, albino rats; details: for Percent inhibition of paw edema (Std. Error): Example 9, 100 mg/kg oral with food
Method: Animals were kept under 13 hour day night cycle. Animals were given standard diet and water was provided ad, libitum. All animals were acclimatized for at least one week before the experimental session. Animals were divided in to five groups. Each group consisted of 8 animals.
Pedal inflammation in albino rats of either sex was produced according to the method of Winter et al., (Proc Soc Exp Biol Med 1963; 111: 544-7). An injection was made with 0.1 ml of 1% carrageenan (SIGMA) suspension into the right hind foot of each rat in the plantar region. […] Control group 5 was given 0.5 ml saline and groups 1 and 2 received aspirin. Increase in linear paw circumference was measured by tying a piece of cotton thread round the rat's paw, and noting the point of intersection of two ends on a meter scale. This was taken as an index of increase in paw volume, which is a measure of oedema (Bamgbose S O A, Noamesi B K. Planta Med 1981; 42: 392-6). Measurements were taken immediately before and at 1, 2 and 3 hours after carrageenan injection. The inhibitory activity was calculated according to the following formula (Awe S O, Olajide O A, Adeboye J O, Makinde J M. Indian J Pharmacol 1998; 30: 38-42):
[formula] Ct-Linear paw circumference 3 hours after carrageenan injection and Co-Linear paw circumference before carrageenan injection.
Albino rats obtained from central animal house of institute were used in the study. The animals were kept under 12 hour day night cycle. Animals were given standard diet and water was provided ad libitum. All animals were acclimatized for at least one week before the experimental session. Animals were divided into twelve groups in the carrageenan induced paw edema and tail flick method. Each group consisted of 4 animal each.
Animals were divided into eight groups in the carrageenan induced paw edema and tail flick method. Each group consisted of 6 animal each. The groups received various chemicals as given in Table 16 by oral administration with food. The following methods were used to evaluate the activity of the compositions:
Pedal inflammation in albino rats of either sex was produced according to the method of Winter et al. (Proc. Soc. Exp. Biol. Med., 1963, 111: 544-547). An injection was made with 0.1 ml of 1% carrageenan (SIGMA) suspension into the right hind foot of each rat in the plantar region. The various chemicals were given 30 minutes before carrageenan injection. Increase in linear paw circumference was measured by tying a piece of cotton thread round the rat's paw, and noting the point of intersection of two ends on a meter scale. This was taken as an index of increase in paw volume, which is a measure of edema (Bamgbose, S. O. A. & Noamesi, B. K., Planta. Med., 1981, 42: 392-396). Measurements were taken immediately before and at 1, 2 and 3 hours after carrageenan injection. The inhibitory activity was calculated according to the following formula (Awe S O, Olajide O A, Adeboye J O, Makinde J M. Indian J. Pharmacol., 1998; 30: 38-42):
Animals were divided into six groups in the carrageenan induced paw edema and tail flick method. Each group consisted of 8 animals each. Carrageenan-induced rat paw edema and Tail flick test were performed as discussed above in Example 8. Data were analyzed using analysis of variance (ANOVA) with Posthoc Bonferroni multi-comparisons. P<0.05 was considered as statistically significant.

[2] = system: tail flick latency in rats; assay: Tail flick test (analgesic activity); format: in vivo, albino rats
Method: Rats were screened for tail flip reaction with a cut-off time of 5 seconds. For each animal, the tail flick latency was obtained thrice before drug administration and mean was used as pre-drug latency. The tail flick latencies were measured at 0, 0.5, 1, 1.5, 2 and 3 h after administration chemicals.
Albino rats obtained from central animal house of institute were used in the study. The animals were kept under 12 hour day night cycle. Animals were given standard diet and water was provided ad libitum. All animals were acclimatized for at least one week before the experimental session. […] Each group consisted of 4 animal each.
Rats were screened for tail flip reaction with a cut-off time of 5 seconds. For each animal, the tail flick latency was obtained thrice before drug administration and mean was used as pre-drug latency. The tail flick latencies were measured at 0, 0.5, 1, 1.5, 2 and 3 h after administration of chemicals.
Each group consisted of 8 animals each. […] Data were analyzed using analysis of variance (ANOVA) with Posthoc Bonferroni multi-comparisons. P<0.05 was considered as statistically significant.

[3] = system: cancer cell lines SKBR3, Panc1, PC-3; assay: Cellular inhibition, Alamar Blue, cancer cell lines taken together; format: cell-based; details: 24 hours
Method: (§1) Assays were performed with 3 cancer cell lines: breast (SKBR3), pancreatic (Panc1), prostate (PC-3) and 1 normal (nor-cancer) cell line (WI-38). Compounds were delivered to the cells after dissolving in DMSO. Five dilutions per compound were tested on a total of 4 cell lines in 96 well plates. Cellular inhibition was measured using Alamar Blue. After addition of compound a 24 hour and 48 hour time point using fluorescent plate reader was taken. Data from plate reader was analyzed in the following way: % inhibition bar graphs, % inhibition line graphs and IC50 growth inhibition values. In Tables 7-14, IC50 units are Molar (M).

[4] = system: breast (SKBR3) cancer cell line; assay: Cellular inhibition, Alamar Blue; format: cell-based; details: Homo sapiens, SK-BR-3
Method: as §1

[5] = system: pancreatic (Panc1) cancer cell line; assay: Cellular inhibition, Alamar Blue; format: cell-based; details: Homo sapiens, PANC-1
Method: as §1

[6] = system: prostate (PC-3) cancer cell line; assay: Cellular inhibition, Alamar Blue; format: cell-based
Method: as §1

[7] = system: normal (non-cancer) cell line WI-38; assay: Cellular inhibition, Alamar Blue; format: cell-based; details: Homo sapiens, WI-38
Method: as §1

[8] = water at 25° C.; Merck Index; cited from earlier work
[9] = In vitro enzyme hydrolysis in human serum (HPLC); format: in vitro ADME; details: 25% human serum; for Test compound Rate: rate of decomposition of test compound; for Test compound Concentration: remaining test compound
Method: A 25% solution of human serum in 0.01M phosphate buffer was taken and the test compound (glucose aspirin or aspirin) were added to get a concentration of 0.2 mg/mL. The hydrolysis for the rate of release of salicylic acid and the rate of decomposition of the test compound were measured by HPLC.

[10] = Example 6, 50-200 mg/kg, compared with control groups and aspirin

## CC(=O)Oc1ccccc1C(=O)O [Aspirin, acetylsalicylic acid]
[1]; Example 6, 100 mg/kg, 0 h
  Paw circumference: 3.125 ± 0.13 mm
[1]; Example 6, 100 mg/kg, 1 h
  Paw circumference: 3.475 ± 0.15 mm
[1]; Example 6, 100 mg/kg, 2 h
  Paw circumference: 3.6 ± 0.14 mm
[1]; Example 6, 100 mg/kg, 3 h
  Paw circumference: 3.475 ± 0.10 mm
[1]; Example 6, 200 mg/kg, 0 h
  Paw circumference: 3.3 ± 0.18 mm
[1]; Example 6, 200 mg/kg, 1 h
  Paw circumference: 3.425 ± 0.21 mm
[1]; Example 6, 200 mg/kg, 2 h
  Paw circumference: 3.575 ± 0.13 mm
[1]; Example 6, 200 mg/kg, 3 h
  Paw circumference: 3.55 ± 0.10 mm
[1]; [10]
  % inhibition of paw edema (in words): significantly inhibited the development of the edema
[1]; Example 8 (in vivo), 100 mg/kg oral with food, 0 h
  Paw circumference: 3.4 mm
[1]; Example 8 (in vivo), 100 mg/kg oral with food, 1 h
  Paw circumference: 3.82 mm
[1]; Example 8 (in vivo), 100 mg/kg oral with food, 2 h
  Paw circumference: 3.58 mm
[1]; Example 8 (in vivo), 100 mg/kg oral with food, 3 h
  Paw circumference: 3.67 mm
[1]; 1 hr
  Percent inhibition of paw edema (Std. Error): 55.44%
[1]; 2 hr
  Percent inhibition of paw edema (Std. Error): 79.16%
[1]; 3 hr
  Percent inhibition of paw edema (Std. Error): 75.29%
[2]; Example 5, 100 and 200 mg/kg i.p., rats
  Tail flick latency / analgesic activity (in words): significant increase in the tail flick latency
[2]; Example 6, 100 mg/kg, 0 min
  Tail flick latency time: 1.64 ± 0.27 s
[2]; Example 6, 100 mg/kg, 30 min
  Tail flick latency time: 3.28 ± 0.26 s
[2]; Example 6, 100 mg/kg, 60 min
  Tail flick latency time: 3.28 ± 0.57 s
[2]; Example 6, 100 mg/kg, 90 min
  Tail flick latency time: 2.88 ± 0.26 s
[2]; Example 6, 100 mg/kg, 120 min
  Tail flick latency time: 2.73 ± 0.48 s
[2]; Example 6, 100 mg/kg, 180 min
  Tail flick latency time: 2.05 ± 0.76 s
[2]; Example 6, 200 mg/kg, 0 min
  Tail flick latency time: 2.32 ± 0.46 s
[2]; Example 6, 200 mg/kg, 30 min
  Tail flick latency time: 3.46 ± 0.77 s
[2]; Example 6, 200 mg/kg, 60 min
  Tail flick latency time: 3.46 ± 0.17 s
[2]; Example 6, 200 mg/kg, 90 min
  Tail flick latency time: 3.03 ± 0.42 s
[2]; Example 6, 200 mg/kg, 120 min
  Tail flick latency time: 3.12 ± 0.30 s
[2]; [10]
  % MPE / analgesic activity in tail flick test (in words): significantly more
[2]; Example 8 (in vivo), 100 mg/kg oral with food, 0 min
  Tail flick latency time: 2.37 s
[2]; Example 8 (in vivo), 100 mg/kg oral with food, 30 min
  Tail flick latency time: 2.75* seconds
[2]; Example 8 (in vivo), 100 mg/kg oral with food, 60 min
  Tail flick latency time: 2.68 s
[2]; Example 8 (in vivo), 100 mg/kg oral with food, 90 min
  Tail flick latency time: 2.57 s
[2]; Example 8 (in vivo), 100 mg/kg oral with food, 120 min
  Tail flick latency time: 2.23 s
[2]; Example 8 (in vivo), 100 mg/kg oral with food, 180 min
  Tail flick latency time: 2.37 s
[3]
  inhibition of cancer cell growth (in words): did not seem to inhibit growth by any significant means
[4]; SKBR3, 24 hours
  IC50: 731 µM
[4]; SKBR3, 48 hours
  IC50: 693 µM
[5]; PANC1, 24 hours
  IC50: 975 µM
[5]; PANC1, 48 hours
  IC50: 745 µM
[6]; PC3, 24 hours
  IC50: 771 µM
[6]; PC3, 48 hours
  IC50: 782 µM
[7]; WI38, 24 hours
  IC50: 619 µM
[7]; WI38, 48 hours
  IC50: 501 µM
[8]
  Aspirin solubility in water: 0.33 g/100 mL
[9]; decomposition of test compound, 0-180 min
  Average rate, test compound: -1.57e-06 M/min
[9]; 0 min
  Test compound Rate: 0 M/min
  Test compound Concentration: 457 µM
[9]; 30 min
  Test compound Rate: -1.4e-06 M/min
  Test compound Concentration: 415 µM
[9]; 60 min
  Test compound Rate: -9.81e-07 M/min
  Test compound Concentration: 399 µM
[9]; 90 min
  Test compound Rate: -2.32e-06 M/min
  Test compound Concentration: 248 µM
[9]; 120 min
  Test compound Rate: -1.56e-06 M/min
  Test compound Concentration: 270 µM
[9]; 180 min
  Test compound Rate: -1.58e-06 M/min
  Test compound Concentration: 174 µM
